What follows are compounds tested against T1, PSMA (Homo sapiens, UniProt Q04609) (assay: PSMA affinity (IC50), competition with ([125I]I-BA)KuE on LNCaP cells). Details: natLu complexes; LNCaP cells 150000 cells/well, ([125I]I-BA)KuE c=0.2 nM, 1 h, 4 °C, HBSS+1% BSA; mean±SD, n=3; read-out: IC50 (binding affinity to PSMA).
T1 construct: PSMA-positive LNCAP cells (300265; Cell Lines Service, Eppelheim, Germany); host or cells: LNCaP cells
T1 sequence (Q04609 whole entry): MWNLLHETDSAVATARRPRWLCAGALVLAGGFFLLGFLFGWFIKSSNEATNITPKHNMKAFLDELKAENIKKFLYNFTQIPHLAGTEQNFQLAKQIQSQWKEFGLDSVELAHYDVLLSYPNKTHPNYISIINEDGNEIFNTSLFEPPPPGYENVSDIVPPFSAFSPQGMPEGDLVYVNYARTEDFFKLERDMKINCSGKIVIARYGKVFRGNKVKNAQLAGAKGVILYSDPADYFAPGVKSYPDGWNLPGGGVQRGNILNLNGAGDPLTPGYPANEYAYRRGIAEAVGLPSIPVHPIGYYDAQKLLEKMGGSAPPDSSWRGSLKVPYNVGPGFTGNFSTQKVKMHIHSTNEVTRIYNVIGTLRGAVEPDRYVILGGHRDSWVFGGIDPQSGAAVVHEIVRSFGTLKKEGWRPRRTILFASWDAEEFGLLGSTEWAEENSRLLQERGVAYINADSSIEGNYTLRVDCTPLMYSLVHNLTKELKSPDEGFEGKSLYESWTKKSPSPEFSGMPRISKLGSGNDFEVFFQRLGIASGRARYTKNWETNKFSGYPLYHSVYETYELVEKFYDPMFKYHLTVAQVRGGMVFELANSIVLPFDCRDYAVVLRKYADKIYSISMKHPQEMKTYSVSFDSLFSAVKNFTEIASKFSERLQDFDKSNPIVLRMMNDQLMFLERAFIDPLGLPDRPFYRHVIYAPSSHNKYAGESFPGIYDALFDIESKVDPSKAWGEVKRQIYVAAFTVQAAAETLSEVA
Procedure: PSMA-positive LNCAP cells (300265; Cell Lines Service, Eppelheim, Germany) were cultivated in Dulbecco modified Eagle medium/Nutrition Mixture F-12 with Glutamax (1:1) (DMEM-F12, Biochrom, Berlin, Germany) supplemented with fetal bovine serum (10%, FBS Zellkultur, Berlin, Germany) and kept at 37° C. in a humidified CO2 atmosphere (5%). A mixture of trypsin and EDTA (0.05%, 0.02%) in PBS (Biochrom) was used in order to harvest cells. Cells were counted with a Neubauer hemocytometer (Paul Marienfeld, Lauda-Königshofen, Germany).
In the case of metal-complexed ligands, the crude reaction mixture was diluted analogously, without further purification. Cells were harvested 24±2 hours prior to the experiment and seeded in 24-well plates (1.5×10^5 cells in 1 mL/well). After removal of the culture medium, the cells were carefully washed with 500 μL of HBSS, supplemented with 1% bovine serum albumin (BSA, Biowest, Nuaillé, France) and left 15 min on ice for equilibration in 200 μL HBSS (1% BSA). Next, 25 μL per well of solutions, containing either HBSS (1% BSA, control) or the respective ligand in increasing concentration ([…] in HBSS) were added with subsequent addition of 25 μL of [^125I]-BA-KuE (2.0 nM) in HBSS (1% BSA). After incubation on ice for 60 min, the experiment was terminated by removal of the medium and consecutive rinsing with 200 μL of HBSS (1% BSA). The media of both steps were combined in one fraction and represent the amount of free radioligand. Afterwards, the cells were lysed with 250 μL of 1 M aqueous NaOH for at least 10 min. After a washing step (250 μL of 1 M NaOH), both fractions, representing the amount of bound ligand, were united. Quantification of all collected fractions was accomplished in a γ-counter. PSMA-affinity determinations were carried out at least three times per ligand.
Affinities were determined using LNCaP cells (150000 cells/well) and ([^125I]I-BA)KuE (c=0.2 nM) as the radioligand (1 h, 4° C., HBSS+1% BSA). Data are expressed as mean±SD (n=3).
`CC(C)(C)[Si](O)(c1ccc(C(=O)NC[C@@H](NC(=O)CC[C@@H](C(=O)O)N2CCN(CC(=O)O)CCN(CC(=O)O)CCN(CC(=O)O)CC2)C(=O)NCC(=O)N[C@@H](CCCCNC(=O)CCC(=O)NCCC[C@@H](NC(=O)CC[C@H](NC(=O)N[C@@H](CCC(=O)O)C(=O)O)C(=O)O)C(=O)O)C(=O)O)cc1)C(C)(C)C` [E102-SiOH] was tested, and the IC50 was 8.4 ± 2.4 nM. Compound `O=C(O)CC[C@H](NC(=O)N[C@@H](CCCCNC(=O)[C@H](Cc1ccc2ccccc2c1)NC(=O)[C@H]1CC[C@H](CNC(=O)CN2CCN(CC(=O)O)CCN(CC(=O)O)CCN(CC(=O)O)CC2)CC1)C(=O)O)C(=O)O` [PSMA-617, reference compound] has an IC50 of 3.8 ± 1.7 nM. In the case of `CC(C)(C)[Si](O)(c1ccc(C(=O)NC[C@@H](NC(=O)CCCCCNC(=O)CCCNC(=O)CC[C@@H](NC(=O)CCC(NC(=O)N[C@@H](CCC(=O)O)C(=O)O)C(=O)O)C(=O)O)C(=O)NCC(=O)N[C@@H](CCCCNC(=O)CC[C@@H](C(=O)O)N2CCN(CC(=O)O)CCN(CC(=O)O)CCN(CC(=O)O)CC2)C(=O)O)cc1)C(C)(C)C` (stereo partly drawn) [E104-SiOH], the IC50 is reported as 9 ± 2.2 nM. `CC(C)(C)[Si](F)(c1ccc(C(=O)NC[C@@H](NC(=O)CC[C@@H](C(=O)O)N2CCN(CC(=O)O)CCN(CC(=O)O)CCN(CC(=O)O)CC2)C(=O)N[C@H](CCCCNC(=O)CCC(=O)NCCC[C@@H](NC(=O)CC[C@H](NC(=O)N[C@@H](CCC(=O)O)C(=O)O)C(=O)O)C(=O)O)C(=O)O)cc1)C(C)(C)C` [rhPSMA-7.3, reference compound] gave an IC50 of 8 ± 1.6 nM. `CC(C)(C)[Si](O)(c1ccc(C[N+](C)(C)CC(=O)NCCC[C@@H](NC(=O)CC[C@@H](C(=O)O)N2CCN(CC(=O)O)CCN(CC(=O)O)CCN(CC(=O)O)CC2)C(=O)NCCCCCC(=O)NCCC[C@@H](NC(=O)CC[C@H](NC(=O)N[C@@H](CCC(=O)O)C(=O)O)C(=O)O)C(=O)O)cc1)C(C)(C)C` [P110-SiOH] showed an IC50 of 42.2 ± 6.2 nM. `CC(C)(C)[Si](O)(c1ccc(C(=O)N[C@H](CCC(=O)NC[C@@H](NC(=O)CC[C@@H](C(=O)O)N2CCN(CC(=O)O)CCN(CC(=O)O)CCN(CC(=O)O)CC2)C(=O)NCCCCCC(=O)NCCC[C@@H](NC(=O)CC[C@H](NC(=O)N[C@@H](CCC(=O)O)C(=O)O)C(=O)O)C(=O)O)C(=O)O)cc1)C(C)(C)C` [P105-SiOH] was tested, and the IC50 was 9.8 ± 0.4 nM. With `CC(C)(C)[Si](F)(c1ccc(C(=O)NC[C@@H](NC(=O)CN2CCN(CC(=O)O)CCN(CC(=O)O)CCN(CC(=O)O)CC2)C(=O)N[C@H](CCCCNC(=O)CCC(=O)NCCC[C@@H](NC(=O)CC[C@H](NC(=O)N[C@@H](CCC(=O)O)C(=O)O)C(=O)O)C(=O)O)C(=O)O)cc1)C(C)(C)C` [rhPSMA-10, reference compound] the IC50 was 2.8 ± 0.7 nM. In the case of `CC(C)(C)[Si](O)(c1ccc(C(=O)NC[C@@H](NC(=O)CC[C@@H](C(=O)O)N2CCN(CC(=O)O)CCN(CC(=O)O)CCN(CC(=O)O)CC2)C(=O)N[C@H](CO)C(=O)NCCC(=O)NCCC(=O)NCCC[C@@H](NC(=O)CC[C@H](NC(=O)N[C@@H](CCC(=O)O)C(=O)O)C(=O)O)C(=O)O)cc1)C(C)(C)C` [C007-SiOH], the IC50 is reported as 7.1 ± 0.9 nM. Work on `CC(C)(C)[Si](O)(c1ccc(C(=O)NC[C@@H](NC(=O)CC[C@@H](C(=O)O)N2CCN(CC(=O)O)CCN(CC(=O)O)CCN(CC(=O)O)CC2)C(=O)N[C@H](CCCCNC(=O)CCC(=O)NCCC[C@@H](NC(=O)CC[C@H](NC(=O)N[C@@H](CCC(=O)O)C(=O)O)C(=O)O)C(=O)O)C(=O)O)cc1)C(C)(C)C` [7.3-SiOH] yielded an IC50 of 5.9 ± 1.4 nM.

Reference: patent US20230277698A1, “SILICON-CONTAINING LIGAND COMPOUNDS” (Technische Universität München, priority 2020, published 2023)
